From US20210278408A1, “METHODS OF TREATMENT OF CANCER WITH SUBSTITUTED PYRROLE AND PYRAZOLE COMPOUNDS AND DIAGNOSIS OF CANCERS SUSCEPTIBLE TO TREATMENT WITH SUBSTITUTED PYRROLE AND PYRAZOLE COMPOUNDS” (Bantam Pharmaceutical, LLC, priority 2018, published 2021)

Tested on: 406 cancer cell lines, 73 blood tumor cell lines and 333 solid tumor cell lines
Test: OmniScreen drug efficacy on cancer cell lines, fitted area under curve (AUC) of dose-response
Format: cell-based
Design: AUCs: unit not given beside the values
Description: Predictive biomarkers for genes indicating responsiveness to a therapeutic compound can be determined using a cell-based screening technique, such as that offered under the name OmniScreen™ (Crown Biosciences).
In one experimental study, predictive biomarkers were determined for Compound A197 efficacy on 406 cancer cell lines, 73 blood tumor cell lines and 333 solid tumor cell lines. Genomic data for the cell lines was downloaded from the Cancer Cell Line Encyclopedia Project (CCLE) website. Driver mutations were predicted on the Cancer Genome Interpreter Database; only driver mutations were used in the mutation related analysis.
Dose-response curves were fitted by the 4-parameter model:
in which top and bottom are the two asymptotes of the sigmoidal curve, EC50 is the relative IC50, and concentration x is in log−10 scale. To accommodate experimental errors, Bottom was allowed to go down to −20%, and Top was allowed to go up to 120%. The fitting error of a model is measured by
σECS0 is the standard error of EC50. In general, such fitting error should be less than 40% for a model to be considered acceptable. The fitted area under curve (AUC) is calculated by
where a=log(3, 10) and b=log(30000,10).

Cc1nn(-c2nc(-c3ccc(C(F)(F)F)cc3)c(SC(C)C)s2)c(C(=O)O)c1-c1cccc(F)c1 [Compound A197, 4-(3-fluorophenyl)-1-(5-(isopropylthio)-4-(4-(trifluoromethyl)phenyl)thiazol-2-yl)-3-methyl-1H-pyrazole-5-carboxylic acid]
AUCs (22Rv1, Prostate): 2.52 | AUCs (8505C, H&N/Thyroid): 3.78 | AUCs (A253, Submaxillary gland): 3.32 | AUCs (A875, Skin): 3.84 | AUCs (A2058, Skin): 3.64 | AUCs (A2780, Ovary): 2.43 | AUCs (A2780cis, Ovary): 2.68 | IC50 (A2780cis, Ovary): 541 nM | AUCs (A-172, Brain&Nerves): 3.29 | AUCs (A-204, Muscle): 3.66 | AUCs (A-375, Skin): 3.42 | AUCs (A-427, Lung): 3.59 | AUCs (A-431, Skin): 2.96 | AUCs (A-673, Muscle): 2.78 | AUCs (AGS, Stomach/Gastric): 3.63 | IC50 (AGS, Stomach/Gastric): 205000 nM | AUCs (AN3 CA, Uterus): 3.88 | AUCs (ARH-77, Blood): 3.22 | AUCs (ASH-3, H&N/Thyroid): 3.41 | responsiveness of blood tumor cell lines versus solid tumor cell lines (AUC, Welch's t-test P-value 2.3e-16): more likely to be responsive | AUCs (AsPC-1, Pancreas): 3.59 | AUCs (BT-20, Breast): 3.2 | AUCs (BT-483, Breast): 3.43 | AUCs (BxPC-3, Pancreas): 2.97 | AUCs (C4-2, Prostate): 3.61 | AUCs (C666-1, Nose): 3.15 | AUCs (C-33 A, Uterus): 3.7 | AUCs (CAL-27, Tongue): 3.17 | AUCs (CFPAC-1, Pancreas): 3.56 | AUCs (COV644, Ovary): 3.69 | AUCs (Ca Ski, Uterus): 4.35 | AUCs (Caki-2, Kidney): 3.53 | AUCs (Calu-6, Lung): 3.21 | AUCs (Caov-3, Ovary): 3.65 | AUCs (Capan-1, Pancreas): 3.82 | AUCs (Capan-2, Pancreas): 3.28 | AUCs (CoC1, Ovary): 2.95 | AUCs (CoC1/DDP, Ovary): 3.33 | AUCs (D283 Med, Brain&Nerves): 3.28 | AUCs (DMS 79, Lung): 4.09 | AUCs (DMS 114, Lung): 3.56 | AUCs (DU 145, Prostate): 2.99 | AUCs (DV-90, Lung): 3.1 | AUCs (Daoy, Brain&Nerves): 3.14 | AUCs (Detroit 562, Pharynx): 3.54 | AUCs (DoTc2 4510, Uterus/Cervix): 3.9 | AUCs (EBC-1, Lung): 3.47 | AUCs (ES-2, Ovary): 3.75 | IC50 (ES-2, Ovary): 70800 nM | AUCs (FaDu, Pharynx): 2.9 | AUCs (GTL-16, Stomach/Gastric): 3.18 | AUCs (HCC 94, Uterus): 2.92 | IC50 (HCC 94, Uterus): 806 nM | AUCs (HCC1187, Breast): 3.63 | AUCs (HCC1500, Breast): 3.27 | AUCs (HCC1806, Breast): 3.39 | AUCs (HCC1937, Breast): 3.36 | AUCs (HCC1954, Breast): 3.44 | AUCs (HCC2218, Breast): 3.48 | AUCs (HCC2935, Lung): 3.49 | AUCs (HCCC-9810, Liver): 3.64 | AUCs (HCCLM3, Liver): 3.87 | AUCs (HEC-1-A, Uterus): 3.28 | AUCs (HEC-1-B, Uterus): 2.85 | AUCs (HGC-27, Stomach/Gastric): 2.39 | AUCs (HLE, Liver): 3.3 | AUCs (HLF, Liver): 3.43 | AUCs (HPAC, Pancreas): 2.98 | AUCs (HT-3, Uterus/Cervix): 3.91 | IC50 (HT-3, Uterus/Cervix): 30100 nM | AUCs (HT-55, Large intestine/Colorectum): 4 | AUCs (HT-1080, Soft tissue): 3.07 | AUCs (HT-1376, Bladder): 4.11 | AUCs (HUH-1, Liver): 3.81 | AUCs (HeLa 229, Cervix): 3.37 | AUCs (Hep3B, Liver): 3.5 | IC50 (Homo sapiens, 22Rv1, 22Rv1, Prostate): 1090 nM | IC50 (Homo sapiens, A204, A-204, Muscle): 184000 nM | IC50 (Homo sapiens, A673, A-673, Muscle): 701 nM | IC50 (Homo sapiens, A2780, A2780, Ovary): 863 nM | IC50 (Homo sapiens, A-375, A-375, Skin): 28100 nM | IC50 (Homo sapiens, A-431, A-431, Skin): 1110 nM | IC50 (Homo sapiens, AN3-CA, AN3 CA, Uterus): 45600 nM | IC50 (Homo sapiens, BXPC-3, BxPC-3, Pancreas): 351 nM | IC50 (Homo sapiens, C6661, C666-1, Nose): 24600 nM | IC50 (Homo sapiens, CAL-27, CAL-27, Tongue): 3420 nM | IC50 (Homo sapiens, Ca-Ski, Ca Ski, Uterus): 41300 nM | IC50 (Homo sapiens, DMS-79, DMS 79, Lung): 420000 nM | IC50 (Homo sapiens, DU-145, DU 145, Prostate): 835 nM | IC50 (Homo sapiens, FaDu, Pharynx): 341 nM | IC50 (Homo sapiens, HEC-1B, HEC-1-B, Uterus): 438 nM | IC50 (Homo sapiens, HGC-27, HGC-27, Stomach/Gastric): 513 nM | IC50 (Homo sapiens, HPAC, Pancreas): 467 nM | IC50 (Homo sapiens, HT-1080, HT-1080, Soft tissue): 990 nM | IC50 (Homo sapiens, HuTu80, Hutu 80, Small intestine/Duodenum): 880 nM | IC50 (Homo sapiens, Ishikawa, Uterus): 297 nM | IC50 (Homo sapiens, JEG-3, JEG-3, Placenta): 993 nM | IC50 (Homo sapiens, LNCaP-Clone-FGC, LNCaP clone FGC, Prostate): 172 nM | IC50 (Homo sapiens, ME-180, ME-180, Uterus): 562 nM | IC50 (Homo sapiens, MES-SA, Uterus): 480 nM | IC50 (Homo sapiens, MES-SA/Dx5, MES-SA/DX5, Uterus): 342 nM | IC50 (Homo sapiens, MIA PaCa-2, MIA PaCa-2, Pancreas): 2910 nM | IC50 (Homo sapiens, MKN-1, MKN1, Stomach/Gastric): 5360 nM | IC50 (Homo sapiens, NCI-H146, NCI-H146, Lung): 42600 nM | IC50 (Homo sapiens, NCI-H187, NCI-H187, Lung): 8360 nM | IC50 (Homo sapiens, NCI-H226, NCI-H226, Lung): 2230 nM | IC50 (Homo sapiens, NCI-H446, NCI-H446, Lung): 30500 nM | IC50 (Homo sapiens, NCI-H526, NCI-H526, Lung): 212000 nM | IC50 (Homo sapiens, NCI-H1648, NCI-H1648, Lung): 72900 nM | IC50 (Homo sapiens, NCI-H2452, NCI-H2452, Lung): 70800 nM | IC50 (Homo sapiens, NUGC-3, NUGC-3, Stomach/Gastric): 26500 nM | IC50 (Homo sapiens, NUGC-4, NUGC-4, Stomach/Gastric): 1350 nM | IC50 (Homo sapiens, OVCAR-8, OVCAR-8, Ovary): 1020 nM | IC50 (Homo sapiens, PANC-1, PANC-1, Pancreas): 2610 nM | IC50 (Homo sapiens, RL95-2, RL95-2, Uterus): 416 nM | IC50 (Homo sapiens, RPMI-2650, RPMI-2650, Nose): 843 nM | IC50 (Homo sapiens, SCC-4, SCC-4, Tongue): 833000 nM | IC50 (Homo sapiens, SCC-9, SCC-9, Tongue): 26100 nM | IC50 (Homo sapiens, SK-MEL-5, SK-MEL-5, Skin): 75100 nM | IC50 (Homo sapiens, SK-MEL-28, SK-MEL-28, Skin): 105000 nM | IC50 (Homo sapiens, SK-OV-3, SK-OV-3, Ovary): 84900 nM | IC50 (Homo sapiens, SNU1, SNU-1, Stomach/Gastric): 12600 nM | IC50 (Homo sapiens, SNU-5, SNU-5, Stomach/Gastric): 1950 nM | IC50 (Homo sapiens, SW626, SW626, Ovary): 415000 nM | IC50 (Homo sapiens, SW756, SW756, Ovary): 37900 nM | IC50 (Homo sapiens, SW982, SW982, Soft tissue): 66000 nM | IC50 (Homo sapiens, WM 266-4, WM-266-4, Skin): 32400 nM | AUCs (HuCCT1, Liver): 3.24 | AUCs (Hutu 80, Small intestine/Duodenum): 2.69 | AUCs (IM95m, Stomach/Gastric): 2.9 | IC50 (IM95m, Stomach/Gastric): 601 nM | AUCs (Ishikawa, Uterus): 2.44 | AUCs (JAR, Placenta): 2.57 | IC50 (JAR, Placenta): 673 nM | AUCs (JEG-3, Placenta): 3.2 | AUCs (JHH-5, Liver): 3.56 | AUCs (JIMT-1, Breast): 3.62 | AUCs (KATO III, Stomach/Gastric): 3.2
